Molecules are shown by their SMILES. Where two headings read alike, the source gives them in different places.

Consider 26 compounds from US20100160369A1, “S1P1 Agonists and Methods of Making And Using” (EXELIXIS, INC., priority 2008, published 2010).

This assay addresses S1P1 (Homo sapiens, UniProt P21453). The assay can be described thus: CNG cAMP Assay (Assay 1). The assay is classed as cell-based. Also noted: host or cells: HEK293 cells expressing the CNG channel. As to the method: Frozen HEK293 cells expressing the CNG channel and S1P1 (BD Biosciences, San Jose, Calif.) were thawed and plated into the wells of a black, clear bottom, 384-well CellBind plate (Corning, Corning, N.Y.) at 14,000 cells per well. HEK293 cells expressing the CNG channel and CB1 (BD Biosciences) were cultured and plated under the same conditions. The cells were incubated for 16 h at 37° C. in complete DMEM medium (Invitrogen Carlsbad, Calif.) containing 10% FBS (HyClone Logan, Utah), 250 μg/mL geneticin (Invitrogen), and 1 μg/mL puromycin (Sigma-Aldrich, St. Louis, Mo.). A membrane potential dye (BD Biosciences) was added and the plates were incubated for 2-2.5 h at room temperature.
Test compounds were tested at maximum concentrations of 10 μM. Compounds were diluted in DMSO (10 concentration points, 3-fold each) and added to the assay plate at final DMSO concentrations of 1.8%. For each compound, there were duplicate assay plates and each assay plate had duplicate wells per concentration point. Test compounds were added to the cells in a DPBS solution containing 25 μM Ro 20-1724 (Sigma-Aldrich), 500 nM of the A2b receptor agonist NECA (Sigma-Aldrich) and 10 nM (EC95) of S1P (Avanti Alabaster, Ala.) and incubated for 90 min. The assay plate was read before compound addition (T0) and after the 90 min incubation (T90) using an EnVision plate reader (PerkinElmer, Waltham, Mass.) at an excitation wavelength of 350 nm and an emission wavelength of 590 nm. The T90/T0 ratio was determined for each concentration of the test compounds. The percent agonist activity was determined as [(test compound−DMSO alone control)/(NECA alone control−DMSO alone control)*100]. The percent activities were plotted against compound concentration to determine EC50 using XLFit (IDBS, Alameda, Calif.). The control used for calculating rEC50 in the S1P1 CNG agonist assay was DMSO.
Assay 1 is the CNG cAMP Assay as described in Biological Example 1. Assay 2a and 2b are the Tango™ β-arrestin Recruitment Assay in HEK293 and U2OS cells, respectively, as described in Biological Example 2. Assay 3a is the hS1P1R GTPγS Binding Assay as described in Biological Example 3. Assay 3b is the GTP-Eu Binding Assay as described in Biological Example 3. EC50's were measured unless otherwise noted. […] In the table, “nt” means the Compound was not tested and “no” means the compound was tested but had no measurable activity under the assay conditions employed.

Where [1] appears, read: footnote 1: Relative EC50 was measured, read-out: Assay 1 Relative EC50.

Sequence of S1P1 (P21453 whole entry): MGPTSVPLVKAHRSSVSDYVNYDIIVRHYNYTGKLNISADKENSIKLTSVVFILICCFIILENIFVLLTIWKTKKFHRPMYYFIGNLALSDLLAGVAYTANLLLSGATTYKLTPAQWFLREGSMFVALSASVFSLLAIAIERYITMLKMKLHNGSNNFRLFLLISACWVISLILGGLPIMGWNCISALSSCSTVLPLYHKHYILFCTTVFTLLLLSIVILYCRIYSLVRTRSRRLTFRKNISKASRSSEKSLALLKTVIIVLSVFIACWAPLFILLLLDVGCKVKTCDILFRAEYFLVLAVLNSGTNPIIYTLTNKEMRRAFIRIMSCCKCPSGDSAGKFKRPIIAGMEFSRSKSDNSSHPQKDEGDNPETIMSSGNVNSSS

For `CS(=O)(=O)Nc1ccc(-c2noc(-c3cn4cc(C(F)(F)F)cc(Cl)c4n3)n2)c(F)c1` [Example 129, N-(4-{5-[8-chloro-6-(trifluoromethyl)imidazo[1,2-a]pyridin-2-yl]-1,2,4-oxadiazol-3-yl}-3-fluorophenyl)methanesulfonamide], the concentration for a half-maximal effect (EC50) (in general, the concentration needed to bring the measured effect to its halfway point) (read-out: Assay 1 EC50) lay within 100 to 500 nM.

For the compound `O=C(O)Cc1ccc(-c2noc(-c3cn4cc(C(F)(F)F)cc(Cl)c4n3)n2)c(Cl)c1` [Example 133, (3-chloro-4-{5-[8-chloro-6-(trifluoromethyl)imidazo[1,2-a]pyridin-2-yl]-1,2,4-oxadiazol-3-yl}phenyl)acetic acid], the EC50 under setting [1] is 1000 to 5000 nM. As for `O=c1nc(-c2ccc(-c3noc(-c4cn5cc(C(F)(F)F)cc(Cl)c5n4)n3)c(Cl)c2)[nH]o1` [Example 134, 3-(3-chloro-4-{5-[8-chloro-6-(trifluoromethyl)imidazo[1,2-a]pyridin-2-yl]-1,2,4-oxadiazol-3-yl}phenyl)-1,2,4-oxadiazol-5(2H)-one], the EC50 (read-out: Assay 1 EC50) was in the range of 500 to 1000 nM. The same measure, in the same setting: the result for `NC(=O)C(CC(=O)O)c1ccc(-c2noc(-c3cn4cc(C(F)(F)F)cc(Cl)c4n3)n2)c(Cl)c1` (centres unmarked) [Example 135, 4-amino-3-(3-chloro-4-{5-[8-chloro-6-(trifluoromethyl)imidazo[1,2-a]pyridin-2-yl]-1,2,4-oxadiazol-3-yl}phenyl)-4-oxobutanoic acid] reads 100 to 500 nM. In the case of `CCNC(CC(=O)O)c1ccc(-c2noc(-c3cn4cc(C(F)(F)F)cc(Cl)c4n3)n2)c(Cl)c1` (centres unmarked) [Example 137, 3-(3-chloro-4-{5-[8-chloro-6-(trifluoromethyl)imidazo[1,2-a]pyridin-2-yl]-1,2,4-oxadiazol-3-yl}phenyl)-3-(ethylamino)propanoic acid], the half-maximal effective concentration (EC50) under setting [1] lay within 1000 to 5000 nM.

In the case of `CS(=O)(=O)CCc1ccc(-c2noc(-c3cn4cc(C(F)(F)F)cc(Cl)c4n3)n2)c(Cl)c1` [Example 140, 8-chloro-2-(3-{2-chloro-4-[2-(methylsulfonyl)ethyl]phenyl}-1,2,4-oxadiazol-5-yl)-6-(trifluoromethyl)imidazo[1,2-a]pyridine], where the note is “read-out: Assay 1 EC50”, the concentration for a half-maximal effect (EC50) is not above 100 nM.

As to `FC(F)(F)c1cccc(-c2noc(-c3cn4cc(C(F)(F)F)cc(Cl)c4n3)n2)c1` [Example 143, 8-chloro-6-(trifluoromethyl)-2-{3-[3-(trifluoromethyl)phenyl]-1,2,4-oxadiazol-5-yl}imidazo[1,2-a]pyridine], under “read-out: Assay 1 EC50”, the EC50 lay within 500 to 1000 nM. As for `OCCN1CCC(Oc2cc(Cl)c(-c3noc(-c4cn5cc(C(F)(F)F)cc(Cl)c5n4)n3)cc2F)C1` (centres unmarked) [Example 144, 2-{3-[(5-chloro-4-{5-[8-chloro-6-(trifluoromethyl)imidazo[1,2-a]pyridin-2-yl]-1,2,4-oxadiazol-3-yl}-2-fluorophenyl)oxy]pyrrolidin-1-yl}ethanol], where the note is “read-out: Assay 1 EC50”, the EC50 lay within 100 to 500 nM. For `Fc1ccc(-c2noc(-c3cn4cc(C(F)(F)F)cc(Cl)c4n3)n2)c(F)c1` [Example 146, 8-chloro-2-[3-(2,4-difluorophenyl)-1,2,4-oxadiazol-5-yl]-6-(trifluoromethyl)imidazo[1,2-a]pyridine], the concentration for a half-maximal effect (EC50) (read-out: Assay 1 EC50) was 500 to 1000 nM.

Consider `Fc1cccc(Cl)c1-c1noc(-c2cn3cc(C(F)(F)F)cc(Br)c3n2)n1` [Example 147, 8-bromo-2-[3-(2-chloro-6-fluorophenyl)-1,2,4-oxadiazol-5-yl]-6-(trifluoromethyl)imidazo[1,2-a]pyridine], for which, for the setting “read-out: Assay 1 EC50”, the concentration giving a half-maximal response (EC50) was 100 to 500 nM. For `CS(=O)(=O)c1cc(Cl)c2nc(-c3nc(-c4cc(F)c(CCC(=O)O)cc4Cl)no3)cn2c1` [Example 148, 3-(5-chloro-4-{5-[8-chloro-6-(methylsulfonyl)imidazo[1,2-a]pyridin-2-yl]-1,2,4-oxadiazol-3-yl}-2-fluorophenyl)propanoic acid], the EC50 (read-out: Assay 1 EC50) was not above 100 nM. With `FC(F)(F)c1cc(Cl)c2nc(-c3nc(-c4ccc5[nH]ccc5c4)no3)cn2c1` [Example 151, 8-chloro-2-[3-(1H-indol-5-yl)-1,2,4-oxadiazol-5-yl]-6-(trifluoromethyl)imidazo[1,2-a]pyridine], the EC50 (read-out: Assay 1 EC50) lay in the range of 100 to 500 nM.

`Cc1cc(F)ccc1-c1noc(-c2cn3cc(C(F)(F)F)cc(Cl)c3n2)n1` [Example 152, 8-chloro-2-[3-(4-fluoro-2-methylphenyl)-1,2,4-oxadiazol-5-yl]-6-(trifluoromethyl)imidazo[1,2-a]pyridine]: the concentration giving a half-maximal response (EC50) (read-out: Assay 1 EC50) was not above 100 nM. As to `Fc1cccc(-c2noc(-c3cn4cc(C(F)(F)F)cc(Cl)c4n3)n2)c1Cl` [Example 157, 8-chloro-2-[3-(2-chloro-3-fluorophenyl)-1,2,4-oxadiazol-5-yl]-6-(trifluoromethyl)imidazo[1,2-a]pyridine], the concentration giving a half-maximal response (EC50) (read-out: Assay 1 EC50) is 100 to 500 nM. Consider `O=C(O)c1cc2cc(-c3noc(-c4cn5cc(C(F)(F)F)cc(Cl)c5n4)n3)ccc2o1` [Example 158, 5-{5-[8-chloro-6-(trifluoromethyl)imidazo[1,2-a]pyridin-2-yl]-1,2,4-oxadiazol-3-yl}-1-benzofuran-2-carboxylic acid], for which the EC50 under setting [1] lay within 1000 to 5000 nM. As to `FC(F)(F)c1cc(Cl)c2nc(-c3nc(-c4cccc5[nH]ccc45)no3)cn2c1` [Example 162, 8-chloro-2-[3-(1H-indol-4-yl)-1,2,4-oxadiazol-5-yl]-6-(trifluoromethyl)imidazo[1,2-a]pyridine], the concentration giving a half-maximal response (EC50) (read-out: Assay 1 EC50) was not above 100 nM.

In the case of `Fc1cccc(Cl)c1-c1noc(-c2cn3cc(C(F)(F)F)cc(Cl)c3n2)n1` [Example 163, 8-chloro-2-[3-(2-chloro-6-fluorophenyl)-1,2,4-oxadiazol-5-yl]-6-(trifluoromethyl)imidazo[1,2-a]pyridine], the EC50 (read-out: Assay 1 EC50) lay within 100 to 500 nM.

As for `FC(F)(F)c1cc(Cl)c2nc(-c3nc(-c4ccc5[nH]cnc5c4)no3)cn2c1` [Example 164, 5-{5-[8-chloro-6-(trifluoromethyl)imidazo[1,2-a]pyridin-2-yl]-1,2,4-oxadiazol-3-yl}-1H-benzimidazole], the EC50 (read-out: Assay 1 EC50) was in the range of 100 to 500 nM. Still for that read-out and setting: in the case of `FC(F)(F)c1cc(Cl)c2nc(-c3nc(-c4ccccc4C(F)(F)F)no3)cn2c1` [Example 165, 8-chloro-6-(trifluoromethyl)-2-{3-[2-(trifluoromethyl)phenyl]-1,2,4-oxadiazol-5-yl}imidazo[1,2-a]pyridine] it was 100 to 500 nM. As for `Fc1ccc(-c2noc(-c3cn4cc(C(F)(F)F)cc(Cl)c4n3)n2)c(Br)c1` [Example 168, 2-[3-(2-bromo-4-fluorophenyl)-1,2,4-oxadiazol-5-yl]-8-chloro-6-(trifluoromethyl)imidazo[1,2-a]pyridine], under “read-out: Assay 1 EC50”, the concentration giving a half-maximal response (EC50) was not above 100 nM. As to `O=C(O)c1cc2cc(-c3noc(-c4cn5cc(C(F)(F)F)cc(Cl)c5n4)n3)ccc2[nH]1` [Example 169, 5-{5-[8-chloro-6-(trifluoromethyl)imidazo[1,2-a]pyridin-2-yl]-1,2,4-oxadiazol-3-yl}-1H-indole-2-carboxylic acid], the concentration for a half-maximal effect (EC50) under setting [1] lay within 5000 to 10000 nM. As for `CC(CC(N)=O)c1ccc(-c2noc(-c3cn4cc(C(F)(F)F)cc(Cl)c4n3)n2)c(Cl)c1` (centres unmarked) [Example 170, 3-(3-chloro-4-{5-[8-chloro-6-(trifluoromethyl)imidazo[1,2-a]pyridin-2-yl]-1,2,4-oxadiazol-3-yl}phenyl)butanamide], the concentration for a half-maximal effect (EC50) (read-out: Assay 1 EC50) was not above 100 nM. On the same count and under the same terms, the result for `NC(=O)Cn1ccc2c(-c3noc(-c4cn5cc(C(F)(F)F)cc(Cl)c5n4)n3)cccc21` [Example 174, 2-(4-{5-[8-chloro-6-(trifluoromethyl)imidazo[1,2-a]pyridin-2-yl]-1,2,4-oxadiazol-3-yl}-1H-indol-1-yl)acetamide] reads not above 100 nM; that for `O=C(Cn1ccc2c(-c3noc(-c4cn5cc(C(F)(F)F)cc(Cl)c5n4)n3)cccc21)NCCO` [Example 175, 2-(4-{5-[8-chloro-6-(trifluoromethyl)imidazo[1,2-a]pyridin-2-yl]-1,2,4-oxadiazol-3-yl}-1H-indol-1-yl)-N-(2-hydroxyethyl)acetamide], not above 100 nM; that for `FC(F)(F)c1ccc(-c2noc(-c3cn4cc(C(F)(F)F)cc(Cl)c4n3)n2)c(Cl)c1` [Example 183, 8-chloro-2-{3-[2-chloro-4-(trifluoromethyl)phenyl]-1,2,4-oxadiazol-5-yl}-6-(trifluoromethyl)imidazo[1,2-a]pyridine], 500 to 1000 nM. As to `CC(CC(=O)O)c1ccc(-c2noc(-c3cn4cc(C(F)(F)F)cc(Cl)c4n3)n2)c(F)c1` (centres unmarked) [Example 186, 3-(4-{5-[8-chloro-6-(trifluoromethyl)imidazo[1,2-a]pyridin-2-yl]-1,2,4-oxadiazol-3-yl}-3-fluorophenyl)butanoic acid], the EC50 (read-out: Assay 1 EC50) was in the range of 100 to 500 nM.
